Test results taken from patent publication US20250018048A1, “FLUCONAZOLE-COX INHIBITOR HYBRIDS: A DUAL-ACTING CLASS OF ANTIFUNGAL AZOLES” (Ramot at Tel-Aviv University Ltd., priority 2022, published 2025).
≈ marks a conversion by molar mass, not a printed value.

What was measured:
Type in all cases: cell-based
C. albicans SN152 = test: MIC80 broth double-dilution assay; settings: for MIC80 against C. albicans SN152: YPAD medium, 30° C., 24 h, parent strain of the erg11ΔΔ/erg3ΔΔ mutant; for MIC80: Candida albicans, SN152, 24 h, read-out: MIC80 against C. albicans SN152
Outline: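 CLSI M27-A3-based broth microdilution in YPAD, cells diluted from 1×10^−3 OD600 suspension 1:100, hybrids double-diluted from 64 to 0.003 μg/mL. After 24 h at 30 °C, MIC80 is the OD600 reduction >80% versus no-drug wells; triplicate, two independent experiments.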

[1] = tested on: C. albicans 742 (erg11ΔΔ/erg3ΔΔ mutant C. albicans strain); test: MIC80 broth double-dilution assay, strain lacking CYP51; settings: 24 h; for MIC80 against C. albicans 742: YPAD medium, 30° C., erg11ΔΔ/erg3ΔΔ mutant lacking CYP51; for MIC80: Candida albicans, read-out: MIC80 against C. albicans 742
Outline: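 Double-knockout C. albicans and parent SN152 grown in YPAD at 30 °C with serial double dilutions from 64 to 0.003 μg/mL; OD600 read after 24 h (growth followed over 48 h). MIC80 taken as >80% OD600 reduction versus no-drug wells; triplicate, two independent experiments.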

C. auris ATCC MYA5001 = test: MIC broth double-dilution assay with MTT (CLSI M27-A3); settings: 37° C., 24 h; for MIC against C. auris 5001: YPAD medium, growth score 0 or 1; for MIC: Candidozyma auris, ATCCMYA5001, YPAD medium, growth score 0 or 1, read-out: MIC against C. auris 5001
Procedure: (§1) Minimal inhibitory concentration broth double-dilution assay: C. auris minimal inhibitory concentrations (MICs) were determined using CLSI M27-A3 guidelines with minor modifications. Starter cultures were streaked from glycerol stock onto YPAD agar plates and grown for 24 h at 37° C. Colonies were suspended in 1 mL PBS and diluted to 1×10^−3 optical density at 600 nm (OD600) and then diluted 1:100 into fresh medium. hybrids dissolved in DMSO were added to YPAD broth (32 μL stock solution in 1218 μL of YPAD broth), and serial double dilutions of hybrids in YPAD were prepared in flat-bottomed 96-well microplates (Corning) to enable testing of concentrations ranging from 64 μg/mL to 0.007 μg/mL. Control wells with yeast cells but no drug and blank wells containing only YPAD were prepared. An equal volume (100 μL) of yeast suspension in YPAD broth was added to each well with the exceptions of the blank wells. After incubation for 24 h at 37° C., MTT (50 μL of a 1 mg/mL solution in ddH2O) was added to each well followed by additional incubation at 37° C. for 2 h. MIC values (Table S3) were defined as the lowest concentration of an antifungal agent that caused a specified reduction in visible growth as per the CLSI M27-A3 protocol. The magnitude of reduction in visible growth was assessed using the following numerical scale: 0, optically clear; 1, slightly hazy; 2, prominent decrease (˜50%) in visible growth; 3, slight reduction in visible growth; and 4, no reduction in visible growth. The MIC was defined based on reduction in growth to 0 or 1. Results were confirmed in two independent experiments, and each concentration was tested in triplicate. FLC and VOR were used as control drugs.

C. auris ATCC MYA5002 = test: as above; settings: 37° C., 24 h; for MIC against C. auris 5002: YPAD medium, growth score 0 or 1; for MIC: Candidozyma auris, ATCCMYA5002, YPAD medium, growth score 0 or 1, read-out: MIC against C. auris 5002
Procedure: as §1

[2] = tested on: erg11ΔΔ/erg3ΔΔ mutant C. albicans; test: Growth curve analysis of C. albicans lacking CYP51; settings: YPAD, 30° C., 48 h
Procedure: The clinically used FLC and VOR act primarily by preventing ergosterol biosynthesis via inhibition of CYP51. Analysis was done to determine whether fungal growth inhibition by the hybrids required the presence of the ERG11 gene that encodes for CYP51. The antifungal activities of hybrids 1 and 5 and of FLC and VOR were determined against an erg11ΔΔ/erg3ΔΔ mutant C. albicans strain and against C. albicans SN152 from which this double knockout strain was derived (Table S2). […] Yeast growth was followed at OD600 over 48 h in 96-well plates containing serial double dilutions of the tested hybrids.
Cells of erg11ΔΔ/erg3ΔΔ mutant C. albicans were grown in YPAD media at 30° C. and treated with different concentrations of the tested hybrids. Growth was measured by recording the OD600 values every 40 minutes over a 48-h course on an automated plate reader.
Growth curve analyses: Growth curves were determined using the double-dilution method in 96-well plates. Starter cultures were streaked from glycerol stock onto YPAD agar plates and grown for 24 h at 30° C. Colonies were suspended in 1 mL PBS and diluted to 1×10^−3 OD600 and then diluted 1:100 into fresh medium. Hybrids dissolved in DMSO were added to YPAD broth (32 μL stock solution in 1218 μL of YPAD broth), and serial double dilutions of hybrids in YPAD were prepared in flat-bottomed 96-well microplates (Corning) to enable testing of concentrations ranging from 64 μg/mL to 1 μg/mL. Control wells with yeast cells but no drug (100% growth) and blank wells containing only YPAD (0% growth) were prepared. An equal volume (100 μL) of yeast suspensions in YPAD broth was added to each well with the exceptions of the blank wells. Growth was determined at 30° C. by measuring the OD600 using a plate reader (Infinite M200 PRO, Tecan) every 40 minutes over 48 h. Each concentration was tested in triplicate, and results were confirmed by two independent sets of experiments. FLC and VOR were used as control drugs.

[3] = entire range of concentrations (64 to 1 μg/mL)

| SMILES | MIC80 against C. albicans SN152 (C. albicans SN152) | MIC80 against C. albicans 742 [1] | MIC against C. auris 5001 (C. auris ATCC MYA5001) | MIC against C. auris 5002 (C. auris ATCC MYA5002) | Effect on growth (OD600) of the double knockout mutant [2, 3] | MIC80 (C. albicans SN152) | MIC80 [1] | MIC (C. auris ATCC MYA5001) | MIC (C. auris ATCC MYA5002) | Effect on growth (OD600) of the double knockout mutant ([2]; at 64 μg/mL, the highest concentration tested) |
| --- | --- | --- | --- | --- | --- | --- | --- | --- | --- | --- |
| C[C@H](C(=O)NC[C@](O)(Cn1cncn1)c1ccc(F)cc1F)c1ccc(-c2ccccc2)c(F)c1 [Hybrid 5] | 0.007 µg/mL (≈ 0.0146 µM) | 64 µg/mL (≈ 133 µM) | 0.06 µg/mL (≈ 0.125 µM) | 4 µg/mL (≈ 8.32 µM) | clear dose-dependent reduction in growth | – | – | – | – | – |
| CC(C)Cc1ccc([C@H](C)C(=O)NC[C@](O)(Cn2cncn2)c2ccc(F)cc2F)cc1 [Hybrid 1] | 0.003 µg/mL (≈ 0.00678 µM) | 64 µg/mL (≈ 145 µM) | 0.06 µg/mL (≈ 0.136 µM) | 1 µg/mL (≈ 2.26 µM) | clear dose-dependent reduction in growth | – | – | – | – | – |
| OC(Cn1cncn1)(Cn1cncn1)c1ccc(F)cc1F [FLC, fluconazole] | – | inactive | – | – | no significant effect on the growth | 0.5 µg/mL (≈ 1.63 µM) | > 64 µg/mL | 8 µg/mL (≈ 26.1 µM) | > 64 µg/mL | – |
| C[C@@H](c1ncncc1F)[C@](O)(Cn1cncn1)c1ccc(F)cc1F [VOR, voriconazole, reference compound] | – | inactive | – | – | – | 0.007 µg/mL (≈ 0.02 µM) | > 64 µg/mL | 0.03 µg/mL (≈ 0.0859 µM) | 1 µg/mL (≈ 2.86 µM) | Modest reduction in growth |
